Structures can show the parent of a compound that is named as a salt. Where two headings read alike, the source gives them in different places.
What was measured:
[1] = healthy test persons, single dose 0.15 mg/kg i.v., cited from earlier work
[2] = humans; cited from earlier work
[3] = after oral administration; cited from earlier work
[4] = system: nausea and emesis; conditions: cited from earlier work
[5] = diffusion cell, cited from earlier work
[6] = cited from earlier work
[7] = in vitro skin permeation through the skin of a nude mouse

Structure (SMILES): Cc1nccn1CC1CCc2c(c3ccccc3n2C)C1=O (racemic) [ondansetron, (±)-1,2,3,9-tetrahydro-9-methy-3-[(2-methyl-1H-imidazole-1-yl)methyl]-4H-carbazol-4-one monohydrochloride]
- average half-life ([1]; age group 19-40 years): 3.5 h
- peak concentration in plasma ([1]; age group 19-40 years): 102 ng/mL
- plasma clearance ([1]; age group 19-40 years): 0.38 L/h/kg
- average half-life ([1]; age group 61-74 years): 4.7 h
- plasma clearance ([1]; age group 61-74 years): 0.32 L/h/kg
- average half-life ([1]; age group ≧75 years): 5.5 h
- plasma clearance ([1]; age group ≧75 years): 0.26 L/h/kg
- part of a radioactively marked dose found in urine [2]: approximately 5%
- bioavailability [3]: approximately 50%
- treatment of nausea and emesis ([4]; patients treated with anti-tumor drugs such as cisplatin derivatives): reliable in treating nausea and emesis
- side effects ([4]; patients): headaches, diarrhea, and temporary abnormalities in liver function tests

Structure (SMILES): Cc1cccc(CN2CCN(C)C[C@@H](NC(=O)c3n[nH]c4ccccc34)C2)c1.Cl.Cl [(R)-(−)-N-(1-methyl-4-(3-methylbenzyl)hexahydro-1H-1,4-diazepin-6-yl)-1H-indazole-3-carboxamided.2HCl]
- flow of the active agent through the human epidermis ([5]; adhesive matrix of styrene-butadiene copolymer used as a comparison): 0.8 μg/cm^2/h
- flow of the active agent through the human epidermis ([5]; two-phase matrix with 4 % active agent, calcium silicate, dimethyl siloxane adhesive (WO 9407468)): 17.1 μg/cm^2/h

Structure (SMILES): Cc1nccn1CC1CCc2c(c3ccccc3n2C)C1=O (centres unmarked) [ondansetron hydrochloride]
- time until peak concentrations are present in the plasma ([6]; after oral administration): Approximately 1 hour
- average elimination half-life ([6]; healthy test persons): 3.5 h
- average elimination half-life ([6]; older patients): approximately 7.9 hours
- permeation compared with the free base ([7]; in combination with the described solvent mixture): permeates better than ondansetron in the form of the free, non-ionic base
- amount permeated relative to a saturated aqueous solution ([7]; mixture of ethanol, tea tree oil and water vs saturated aqueous solution, after 24 hours): approximately 12 times
- permeation through the skin (FIG. 2) ([7]; saturated aqueous solution): the results do not differ from those which were obtained using pure tea tree oil
- permeation through the skin (FIG. 1) ([7]; saturated solution in ethanol): best permeation
- permeation through the skin (FIG. 1) ([7]; saturated solution in tea tree oil alone): insufficient permeation
- amount permeated ([7]; solution in a mixture of ethanol, tea tree oil and water, after 24 hours): approximately 1.2 mg per cm^2
- flow of the active agent (FIG. 2) ([7]; solution in a mixture of ethanol, tea tree oil and water, first 4 to 5 hours): extremely strong increase
